In PubChem BioAssay AID1918945 (Molecular Pharmacology Branch, DTP, NCI, 2023):

System: 883617-216-R-J1-PDC complex spheroid viability
Assay: Anticancer human tumor 883617-216-R-J1-PDC patient-derived bladder carcinoma cell line growth inhibition
Conditions: for IC50: curve of first compound; for viability, T/C: stronger effect = lower value; active = viability on the fitted dose curve at most 10% of control; inactive = the rest
Outline: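 Drug combinations with the LSD1 inhibitor iadademstat tested on tumor cells co-cultured as spheroids with endothelial cells and mesenchymal stem cells. Concentrations descended in half-log increments from clinical Cmax or 10 microM.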

[1] = second compound 0.1 µM, first compound 0.00949 µM
[2] = second compound 0.1 µM, first compound 0.03 µM
[3] = second compound 0.1 µM, first compound 0.0949 µM
[4] = second compound 0.1 µM, first compound 0.3 µM
[5] = second compound 0.1 µM, first compound 0.949 µM
[6] = second compound 0.1 µM, first compound 3 µM
[7] = second compound 0.316 µM, first compound 0.00949 µM
[8] = second compound 0.316 µM, first compound 0.03 µM
[9] = second compound 0.316 µM, first compound 0.0949 µM
[10] = second compound 0.316 µM, first compound 0.3 µM
[11] = second compound 0.316 µM, first compound 0.949 µM
[12] = second compound 0.316 µM, first compound 3 µM
[13] = second compound 1 µM, first compound 0.00949 µM
[14] = second compound 1 µM, first compound 0.03 µM
[15] = second compound 1 µM, first compound 0.0949 µM
[16] = second compound 1 µM, first compound 0.3 µM
[17] = second compound 1 µM, first compound 0.949 µM
[18] = second compound 1 µM, first compound 3 µM
[19] = second compound 3.16 µM, first compound 0.00949 µM
[20] = second compound 3.16 µM, first compound 0.03 µM
[21] = second compound 3.16 µM, first compound 0.0949 µM
[22] = second compound 3.16 µM, first compound 0.3 µM
[23] = second compound 3.16 µM, first compound 0.949 µM
[24] = second compound 3.16 µM, first compound 3 µM
[25] = second compound 10 µM, first compound 0.00949 µM
[26] = second compound 10 µM, first compound 0.03 µM
[27] = second compound 10 µM, first compound 0.0949 µM
[28] = second compound 10 µM, first compound 0.3 µM
[29] = second compound 10 µM, first compound 0.949 µM
[30] = second compound 10 µM, first compound 3 µM
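Also: exposure lasted seven days after three days of spheroid growth.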
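For viability, T/C in this document: 100% = DMSO vehicle control luminescence.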

Nc1ccccc1NC(=O)c1ccc(CNC(=O)OCc2cccnc2)cc1 + NC1CC1c1ccc(-c2cccc(O)c2)cc1
inactive: viability, T/C [1] 103% | viability, T/C [2] 106% | viability, T/C [3] 64.8% | viability, T/C [4] 36.2% | viability, T/C [5] 19.2% | viability, T/C [7] 110% | viability, T/C [8] 96% | viability, T/C [9] 64.8% | viability, T/C [10] 36.9% | viability, T/C [11] 15.8% | viability, T/C [13] 116% | viability, T/C [14] 96.6% | viability, T/C [15] 62.7% | viability, T/C [16] 39.1% | viability, T/C [17] 12.6% | viability, T/C [19] 115% | viability, T/C [20] 91.2% | viability, T/C [21] 57.3% | viability, T/C [22] 35.6% | viability, T/C [23] 11.9% | viability, T/C [25] 91.5% | viability, T/C [26] 80.7% | viability, T/C [27] 43.5% | viability, T/C [28] 33.9% | viability, T/C [29] 13.6%
103 nM: IC50 (second compound 10 µM)
176 nM: IC50 (second compound 1 µM)
190 nM: IC50 (second compound 0.1 µM)
active: viability, T/C [6] 0.5% | viability, T/C [12] 0.25% | viability, T/C [18] 0.26% | viability, T/C [24] 0.25% | viability, T/C [30] 0.23%
146 nM: IC50 (second compound 3.16 µM)
181 nM: IC50 (second compound 0.316 µM)

CC[C@@]1(O)C(=O)OCc2c1cc1n(c2=O)Cc2cc3c(CN(C)C)c(O)ccc3nc2-1 + NC1CCC(NC2CC2c2ccccc2)CC1
6.31 nM: IC50 (second compound 1 µM)
4.71 nM: IC50 (second compound 0.1 µM)
6.47 nM: IC50 (second compound 3.16 µM)
7.25 nM: IC50 (second compound 10 µM)
inactive: viability, T/C (second compound 0.1 µM, first compound 0.000316 µM) 94.9% | viability, T/C (second compound 0.1 µM, first compound 0.001 µM) 85.8% | viability, T/C (second compound 0.1 µM, first compound 0.00316 µM) 55.2% | viability, T/C (second compound 0.1 µM, first compound 0.01 µM) 38.9% | viability, T/C (second compound 0.1 µM, first compound 0.0316 µM) 33.8% | viability, T/C (second compound 0.1 µM, first compound 0.1 µM) 28.5% | viability, T/C (second compound 0.316 µM, first compound 0.000316 µM) 103% | viability, T/C (second compound 0.316 µM, first compound 0.001 µM) 104% | viability, T/C (second compound 0.316 µM, first compound 0.00316 µM) 62.5% | viability, T/C (second compound 0.316 µM, first compound 0.01 µM) 42.6% | viability, T/C (second compound 0.316 µM, first compound 0.0316 µM) 30.9% | viability, T/C (second compound 0.316 µM, first compound 0.1 µM) 32.4% | viability, T/C (second compound 1 µM, first compound 0.000316 µM) 93.7% | viability, T/C (second compound 1 µM, first compound 0.001 µM) 87.2% | viability, T/C (second compound 1 µM, first compound 0.00316 µM) 57.4% | viability, T/C (second compound 1 µM, first compound 0.01 µM) 44.2% | viability, T/C (second compound 1 µM, first compound 0.0316 µM) 36.2% | viability, T/C (second compound 1 µM, first compound 0.1 µM) 26.9% | viability, T/C (second compound 3.16 µM, first compound 0.000316 µM) 95.8% | viability, T/C (second compound 3.16 µM, first compound 0.001 µM) 86.1% | viability, T/C (second compound 3.16 µM, first compound 0.00316 µM) 61.3% | viability, T/C (second compound 3.16 µM, first compound 0.01 µM) 42.5% | viability, T/C (second compound 3.16 µM, first compound 0.0316 µM) 35.4% | viability, T/C (second compound 3.16 µM, first compound 0.1 µM) 28.8% | viability, T/C (second compound 10 µM, first compound 0.000316 µM) 99.3% | viability, T/C (second compound 10 µM, first compound 0.001 µM) 98.2% | viability, T/C (second compound 10 µM, first compound 0.00316 µM) 74.7% | viability, T/C (second compound 10 µM, first compound 0.01 µM) 40% | viability, T/C (second compound 10 µM, first compound 0.0316 µM) 36.7% | viability, T/C (second compound 10 µM, first compound 0.1 µM) 28.6%
5.7 nM: IC50 (second compound 0.316 µM)

O=C(C=Cc1cccc(S(=O)(=O)Nc2ccccc2)c1)NO + NC1CC1c1ccc(-c2cccc(O)c2)cc1
69.8 nM: IC50 (second compound 1 µM)
59.8 nM: IC50 (second compound 3.16 µM)
36.7 nM: IC50 (second compound 10 µM)
inactive: viability, T/C [1] 105% | viability, T/C [2] 76.1% | viability, T/C [3] 44.8% | viability, T/C [4] 30.9% | viability, T/C [5] 12.9% | viability, T/C [7] 116% | viability, T/C [8] 83.8% | viability, T/C [9] 42.7% | viability, T/C [10] 28.7% | viability, T/C [11] 12% | viability, T/C [13] 106% | viability, T/C [14] 72.3% | viability, T/C [15] 38.5% | viability, T/C [16] 25.8% | viability, T/C [17] 11.9% | viability, T/C [19] 105% | viability, T/C [20] 67.7% | viability, T/C [21] 35.5% | viability, T/C [22] 23.5% | viability, T/C [25] 79.6% | viability, T/C [26] 53.2% | viability, T/C [27] 30.7% | viability, T/C [28] 23.4%
89.8 nM: IC50 (second compound 0.1 µM) | IC50 (second compound 0.316 µM)
active: viability, T/C [6] 0.56% | viability, T/C [12] 0.43% | viability, T/C [18] 0.47% | viability, T/C [23] 10.8% | viability, T/C [24] 0.43% | viability, T/C [29] 11.6% | viability, T/C [30] 0.29%

Nc1ncn(C2CC(O)C(CO)S2)c(=O)n1 (stereo not given) + NC1CCC(NC2CC2c2ccccc2)CC1
inactive: viability, T/C (second compound 0.1 µM, first compound 0.000949 µM) 106% | viability, T/C (second compound 0.1 µM, first compound 0.003 µM) 111% | viability, T/C [1] 101% | viability, T/C [2] 72.9% | viability, T/C [3] 59.1% | viability, T/C [4] 48.3% | viability, T/C (second compound 0.316 µM, first compound 0.000949 µM) 114% | viability, T/C (second compound 0.316 µM, first compound 0.003 µM) 110% | viability, T/C [7] 102% | viability, T/C [8] 68.3% | viability, T/C [9] 60.6% | viability, T/C [10] 52.8% | viability, T/C (second compound 1 µM, first compound 0.000949 µM) 113% | viability, T/C (second compound 1 µM, first compound 0.003 µM) 106% | viability, T/C [13] 97.1% | viability, T/C [14] 75.4% | viability, T/C [15] 57.5% | viability, T/C [16] 50.1% | viability, T/C (second compound 3.16 µM, first compound 0.000949 µM) 101% | viability, T/C (second compound 3.16 µM, first compound 0.003 µM) 106% | viability, T/C [19] 86.1% | viability, T/C [20] 72.8% | viability, T/C [21] 61.4% | viability, T/C [22] 53.7% | viability, T/C (second compound 10 µM, first compound 0.000949 µM) 110% | viability, T/C (second compound 10 µM, first compound 0.003 µM) 114% | viability, T/C [25] 91.3% | viability, T/C [26] 74.8% | viability, T/C [27] 67.7% | viability, T/C [28] 55.6%
291 nM: IC50 (second compound 1 µM)
> 300 nM: IC50 (second compound 0.1 µM) | IC50 (second compound 0.316 µM) | IC50 (second compound 3.16 µM) | IC50 (second compound 10 µM)
